Source: US9302999B2, “Substituted triazoles as herbicides” (E. I. DU PONT DE NEMOURS AND COMPANY, priority 2012, dated 2016)

Legend:
Format in all cases: in vivo
[1] = test system: goosegrass (Eleusine indica); assay: Test F pre-/postemergence: goosegrass; settings: Preemergence
Source text: (§1) Seeds of plant species selected from corn (Zea mays), soybean (Glycine max), velvetleaf (Abutilon theophrasti), lambsquarters (Chenopodium album), poinsettia, wild (wild poinsettia, Euphorbia heterophylla), pigweed, palmer (palmer pigweed, Amaranthus palmeri), waterhemp (common waterhemp, Amaranthus rudis), surinam grass (Brachiaria decumbens), crabgrass, Brazil (Brazilian crabgrass, Digitaria horizontalis), panicum, fall (fall panicum Panicum dichotomiflorum), crabgrass, large (large crabgrass, Digitaria sanguinalis), foxtail, giant (giant foxtail, Setaria faberii), foxtail, green (green foxtail Setaria viridis), goosegrass (Eleusine indica), ragweed (common ragweed, Ambrosia elatior), barnyardgrass (Echinochloa crus-galli), sandbur (southern sandbur, Cenchrus echinatus), arrowleaf sida (Sida rhombifolia), ryegrass, Italian (Italian ryegrass, Lolium multiflorum), dayflower, VA (Virginia (VA) dayflower, Commelina virginica), field bindweed (Convolvulus arvensis), cocklebur (common cocklebur, Xanthium strumarium), morningglory (Ipomoea coccinea), nightshade (eastern black nightshade, Solanum ptycanthum), kochia (Kochia scoparia), nutsedge, yellow (yellow nutsedge, Cyperus esculentus), johnsongrass (Sorghum halepense), smartweed (ladysthumb smartweed, Polygonum persicaria), and beggarticks (hairy beggarticks, Bidens pilosa), were planted into a silt loam soil and treated preemergence with test chemicals formulated in a non-phytotoxic solvent mixture which included a surfactant. At the same time, plants selected from these crop and weed species and also pigweed (Amaranthus retroflexus), waterhemp_RES1 (ALS/Triazine resistant common waterhemp, Amaranthus rudis) and waterhemp_RES2 (ALS/HPPD resistant common waterhemp, Amaranthus rudis) were planted in pots containing a planting medium comprising spaghnum peat moss, vermiculite, wetting agent and starter nutrients treated with postemergence applications of some of the test chemicals formulated in the same manner. Plants ranged in height from 2 to 18 cm for postemergence treatments (1- to 4-leaf stage).
(§2) Treated plants and controls were maintained in a greenhouse for 14 to 21 days, after which time all species were compared to controls and visually evaluated. Plant response ratings, summarized in Table E, are based on a scale of 0 to 100 where 0 is no effect and 100 is complete control. A dash (-) response means no test result.

[2] = test system: beggarticks (hairy beggarticks, Bidens pilosa); assay: Test F pre-/postemergence: beggarticks
In short: (§3)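 Visual response scores, 0 meaning no effect and 100 complete control, were assigned against untreated controls 14 to 21 days after treatment. Test chemicals in a surfactant-containing non-phytotoxic solvent were applied preemergence to seeded silt loam soil or postemergence to 2–18 cm plants in peat-based medium.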

[3] = test system: soybean (Glycine max); assay: Test F pre-/postemergence: soybean
In short: as §3

[4] = test system: waterhemp (common waterhemp, Amaranthus rudis); assay: Test F pre-/postemergence: waterhemp
In short: as §3

[5] = test system: surinam grass (Brachiaria decumbens); assay: Test F pre-/postemergence: surinam grass; settings: Preemergence
Source text: as §1, §2

[6] = 16 g ai/ha, scale 0 to 100 (0 no effect, 100 complete control)
[7] = 31 g ai/ha, scale 0 to 100 (0 no effect, 100 complete control)
[8] = Preemergence, 16 g ai/ha, scale 0 to 100 (0 no effect, 100 complete control)
[9] = Preemergence, 31 g ai/ha, scale 0 to 100 (0 no effect, 100 complete control)
[10] = Preemergence, 62 g ai/ha, scale 0 to 100
[11] = Preemergence, 125 g ai/ha, scale 0 to 100
[12] = Preemergence, 250 g ai/ha, scale 0 to 100
[13] = 4 g ai/ha, scale 0 to 100, 0 no effect, 100 complete control
[14] = 8 g ai/ha, scale 0 to 100, 0 no effect, 100 complete control
[15] = Postemergence, 4 g ai/ha, scale 0 to 100
[16] = Postemergence, 8 g ai/ha, scale 0 to 100
[17] = Postemergence, 16 g ai/ha, scale 0 to 100
[18] = Postemergence, 31 g ai/ha, scale 0 to 100
[19] = Postemergence, 62 g ai/ha, scale 0 to 100
[20] = Preemergence, 4 g ai/ha, scale 0 to 100, 0 no effect, 100 complete control
[21] = Preemergence, 8 g ai/ha, scale 0 to 100, 0 no effect, 100 complete control

CCCc1nn(-c2ccc(F)cc2)nc1Cc1ccnc(C(F)(F)F)c1 [Compound 153]
Plant response rating, Goosegrass [1, 6]: 80 | Plant response rating, Goosegrass [1, 7]: 95 | Plant response rating, Goosegrass ([1]; 62 g ai/ha, scale 0 to 100): 98 | Plant response rating, Goosegrass ([1]; 125 g ai/ha, scale 0 to 100): 100 | Plant response rating, Goosegrass ([1]; 250 g ai/ha, scale 0 to 100): 100 | Plant response rating, Beggarticks [2, 8]: 0 | Plant response rating, Beggarticks [2, 9]: 25 | Plant response rating, Beggarticks [2, 10]: 35 | Plant response rating, Beggarticks [2, 11]: 65 | Plant response rating, Soybean [3, 8]: 0 | Plant response rating, Soybean [3, 9]: 0 | Plant response rating, Soybean [3, 11]: 5 | Plant response rating, Soybean [3, 12]: 25 | Plant response rating, Waterhemp [4, 8]: 65 | Plant response rating, Waterhemp [4, 9]: 100 | Plant response rating, Waterhemp [4, 11]: 100 | Plant response rating, Waterhemp [4, 12]: 100 | Plant response rating, Surinam Grass [5, 6]: 0 | Plant response rating, Surinam Grass [5, 7]: 5 | Plant response rating, Surinam Grass ([5]; 125 g ai/ha, scale 0 to 100): 75 | Plant response rating, Surinam Grass ([5]; 250 g ai/ha, scale 0 to 100): 98

Cc1nn(-c2ccc(C(F)(F)F)c(F)c2)nc1Cc1ccnc(C(F)(F)F)c1 [Compound 162]
Plant response rating, Goosegrass [1, 13]: 0 | Plant response rating, Goosegrass [1, 14]: 0 | Plant response rating, Goosegrass [1, 6]: 95 | Plant response rating, Goosegrass [1, 7]: 100 | Plant response rating, Goosegrass ([1]; 62 g ai/ha, scale 0 to 100): 100 | Plant response rating, Beggarticks [2, 15]: 15 | Plant response rating, Beggarticks [2, 16]: 20 | Plant response rating, Beggarticks [2, 17]: 25 | Plant response rating, Beggarticks [2, 18]: 25 | Plant response rating, Beggarticks [2, 19]: 30 | Plant response rating, Beggarticks [2, 20]: 0 | Plant response rating, Beggarticks [2, 21]: 0 | Plant response rating, Beggarticks [2, 8]: 0 | Plant response rating, Beggarticks [2, 9]: 0 | Plant response rating, Beggarticks [2, 10]: 0 | Plant response rating, Soybean [3, 15]: 20 | Plant response rating, Soybean [3, 16]: 30 | Plant response rating, Soybean [3, 17]: 30 | Plant response rating, Soybean [3, 18]: 45 | Plant response rating, Soybean [3, 19]: 55 | Plant response rating, Soybean [3, 20]: 0 | Plant response rating, Soybean [3, 21]: 0 | Plant response rating, Soybean [3, 8]: 0 | Plant response rating, Soybean [3, 9]: 25 | Plant response rating, Waterhemp [4, 15]: 80 | Plant response rating, Waterhemp [4, 16]: 90 | Plant response rating, Waterhemp [4, 17]: 90 | Plant response rating, Waterhemp [4, 18]: 95 | Plant response rating, Waterhemp [4, 19]: 95 | Plant response rating, Waterhemp [4, 20]: 50 | Plant response rating, Waterhemp [4, 21]: 85 | Plant response rating, Waterhemp [4, 8]: 90 | Plant response rating, Waterhemp [4, 9]: 100 | Plant response rating, Surinam Grass [5, 13]: 0 | Plant response rating, Surinam Grass [5, 14]: 0
